From article PMC10254444, “Targeting Myeloperoxidase Activity and Neutrophil ROS Production to Modulate Redox Process: Effect of Ellagic Acid and Analogues” (Molecules, 2023)

Legend:
[1] = DPPH radical scavenging assay
Protocol: The DPPH assay was performed according to the method developed by Brand-Williams et al., though slightly modified. A solution of 1 mM DPPH in absolute methanol was stirred for 40 min. Absorbance of the solution was adjusted to 0.650 ± 0.020 at 517 nm using fresh absolute methanol. For replicates, the DPPH assay was performed using a microplate reader. For this, 2 µL of EA taken as a standard or sample (EA analogue) were mixed with 198 µL of DPPH solution and incubated for 30 min in the dark covered with aluminum foil. When reacting with an antioxidant, the DPPH• radical is converted into DPPH, and its color changes from purple to yellow. The antioxidant effect may be easily evaluated by observing the decrease in visible absorption. The absorbance decrease was monitored at 510 nm for 30 min with a Multiskan Ascent 96-plate reader (ThermoLabsystem, Finland). A control consisted of 2 µL of DMSO in 198 µL of DPPH solution. A similar formula (Equation (1)) was applied to determine the DPPH radical-scavenging activity.

[2] = ABTS radical cation assay
Protocol: The ABTS assay was based on the method described by Re et al.. For the generation of ABTS^•+ radicals, sodium persulfate (2.45 mM) aqueous solution was mixed with ABTS (7 mM) and incubated overnight in the dark to obtain a dark-colored solution. Stock solution of ABTS^•+ was then diluted by adding pure methanol (100%) to obtain an absorbance of 0.70 (±0.02) at 734 nm at 30 °C. To obtain more repetition, the ABTS assay was performed using a microplate reader (ThermoLabsystem, Finland). An aliquot of 2 µL of the tested compound (EA or analogue) was added to 198 µL of ABTS^•+, and the decrease in absorbance was monitored at 740 nm after 30 min [32]. During this reaction, the blue-green ABTS radical cation is converted back into its colorless neutral form in the presence of the potential antioxidant molecule. A control consisted of 2 µL of DMSO in 198 µL of ABTS^•+ solution. The reducing capacity was determined according to the formula:% inhibition = (Acontrol − ASample) × 100/AControl(1)

[3] = target: T1, Horseradish peroxidase (HRP) (Armoracia rusticana, UniProt P00433); assay: HRP-catalyzed oxidation of L012 (chemiluminescence); format: biochemical
T1 construct: purchased Merck (Darmstadt, Germany)
T1 sequence (P00433 31-338 limits assumed): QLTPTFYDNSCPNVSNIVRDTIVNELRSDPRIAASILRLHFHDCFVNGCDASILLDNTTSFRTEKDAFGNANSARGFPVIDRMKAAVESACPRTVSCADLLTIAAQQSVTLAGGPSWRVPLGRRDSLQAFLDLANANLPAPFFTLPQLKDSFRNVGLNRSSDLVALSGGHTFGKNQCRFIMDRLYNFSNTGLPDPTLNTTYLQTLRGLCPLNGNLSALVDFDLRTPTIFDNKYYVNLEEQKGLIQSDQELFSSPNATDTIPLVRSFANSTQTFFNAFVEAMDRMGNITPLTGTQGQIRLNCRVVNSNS
Protocol: […] (HRP) reacts with hydrogen peroxide (H2O2), yielding “compound I (HRP^+.-Fe (IV=O))”, which is a reactive intermediate of HRP that is able to oxidize any potential reducing agent. Briefly, 2 μL of compound or reference molecule (ellagic acid) were incubated in phosphate buffer at pH 7.4 (153 μL, 50 mM) containing 5 μL HRP (100 µg/L), 20 μL L0-12 (10^−3 M), and 20 μL H2O2 (1 mM), and the chemiluminescence was immediately measured using a Fluoroskan Ascent 96-plate reader (ThermoLabsystem, Finland) at 37 °C for 30 min [32, 34]. The analysis was conducted in a 96-well microtiter plate. All the assays were performed in triplicate and repeated at least twice (N = 2; n = 6). The relative activity in terms of inhibition percentage of the tested compound or reference (ellagic acid) was compared to a control in the presence of DMSO taken as a solvent. The inhibition percentage was calculated using a similar formula (Equation (1)) as described above.

Solubility = format: physicochemical
[4] = in mice; cited from earlier work
[5] = design: method as in PMID 19015354; settings: after intraperitoneal injection; cited from earlier work
[6] = target: T2, human myeloperoxidase (MPO) (Homo sapiens, UniProt P05164); assay: MPO peroxidase activity, classical assay (Amplex Red); format: biochemical; settings: concentration range 0.01 to 10 µM
T2 construct: purchased Calbiochem Millipore
T2 sequence (P05164 49-745): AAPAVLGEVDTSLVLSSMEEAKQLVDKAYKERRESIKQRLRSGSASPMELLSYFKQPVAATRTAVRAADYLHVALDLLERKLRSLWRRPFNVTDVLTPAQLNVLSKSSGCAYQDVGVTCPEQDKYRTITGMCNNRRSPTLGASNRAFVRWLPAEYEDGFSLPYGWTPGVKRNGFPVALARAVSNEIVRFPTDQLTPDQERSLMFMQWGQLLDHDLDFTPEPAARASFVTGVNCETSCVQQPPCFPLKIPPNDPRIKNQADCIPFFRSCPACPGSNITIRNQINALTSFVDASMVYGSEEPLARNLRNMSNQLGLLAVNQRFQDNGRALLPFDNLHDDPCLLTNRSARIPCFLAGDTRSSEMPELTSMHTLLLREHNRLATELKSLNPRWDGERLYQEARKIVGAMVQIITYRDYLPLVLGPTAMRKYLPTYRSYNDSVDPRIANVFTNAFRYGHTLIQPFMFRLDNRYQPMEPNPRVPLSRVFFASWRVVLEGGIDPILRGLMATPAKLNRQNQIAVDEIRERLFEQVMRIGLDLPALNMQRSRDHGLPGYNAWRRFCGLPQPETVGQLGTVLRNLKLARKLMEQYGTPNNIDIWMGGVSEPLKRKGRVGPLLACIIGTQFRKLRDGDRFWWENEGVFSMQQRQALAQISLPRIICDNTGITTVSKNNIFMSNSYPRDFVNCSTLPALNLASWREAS
Protocol: (§1) Measurement of the peroxidase activity of MPO was performed by a classical enzymatic assay and by SIEFED assay as described by Nyssen et al.. The MPO solution was prepared with purified human MPO in dilution buffer (PBS 20 mM at pH 7.4 with 5 g/L BSA and 0.1% Tween-20). The solutions of EA or analogue, at final concentrations ranging from 10^−8 M to 10^−5 M, were incubated for 10 min with human MPO at a final concentration of 5 mU/mL before further use. The revelation of MPO activity was performed by monitoring the enzyme-catalyzed oxidation of Amplex Red in the presence of H2O2 (10 μM) and nitrite (4.5 mM) in phosphate buffer at pH 7.4.
After incubation, mixtures containing 100 μL of EA/analogue or vehicle (DMSO) and MPO were loaded into wells of microtiter plates (transparent), and the peroxidase activity was measured by adding 10 μL sodium nitrite solution (4.5 mM, final concentration) and 100 μL of the reactional solution containing 10 µM H2O2 and 40 µM Amplex® Red (AR) in phosphate buffer (50 mM) at pH 7.4. The oxidation of AR into the fluorescent resorufin adduct (λexcitation = 544 nm; λemission = 590 nm) was monitored for 30 min at 37 °C with a fluorescent plate reader (Fluoroskan Ascent, Fisher Scientific, Hampton, NH, USA). To eliminate the possibility of the artifact reactions that might arise from MPO activity or its natural substrate (H2O2), the direct reaction of ellagic acid or an analogue with H2O2 was performed in phosphate buffer (PBS) without the addition of human MPO.

[7] = target: T2, human myeloperoxidase (MPO); assay: MPO activity by SIEFED assay; format: biochemical
Protocol: as §1
Samples with MPO and various concentrations of […] were prepared and incubated as with the classical assay. An amount of 100 μL of each mixture (MPO alone or MPO + EA/DMSO) was then loaded into the wells of a SIEFED microtiter plate coated with rabbit polyclonal antibodies (3 μg/mL) against human MPO and incubated for 2 h at 37 °C in darkness. After washing up the wells, the activity of the enzyme captured by the antibodies was measured by adding 10 μL sodium nitrite solution (4.5 mM, final concentration) and 100 μL of a reactional solution containing 10 μM H2O2 and 40 μM Amplex® in phosphate buffer (50 mM) at pH 7.4. The oxidation of Amplex® Red into the fluorescent adduct resorufin (λexcitation = 544 nm; λemission = 590 nm) was monitored for 30 min at 37 °C with a fluorescent plate reader (Fluoroskan Ascent, Fisher Scientific). As for the MPO direct assay, a control assay set as the relative value of MPO activity was performed with purified MPO in the presence of PBS instead of the samples of EA or analogue dissolved in DMSO. In this SIEFED assay, MPO was bonded by the antibodies into the wells, and EA/analogue was discarded in the washing step before starting the measurement of the enzymatic activity. For both MPO assays, the inhibition percentage was calculated using a similar formula (Equation (1)) as described above.

IC50 [1] | IC50 [2] | HRP inhibiting activity (in words) [3] | solubility (in words) (Solubility) | IC50 [3] | MPO inhibition (classical assay) [6] | MPO activity, SIEFED assay (in words) [7] | Compound | oral bioavailability [4] | curative activity in vivo (in words) [5]
5.64 ± 0.47 µM | 6.01 ± 0.26 µM | strong inhibiting activity | low hydrosolubility |  |  |  | O=c1oc2c(O)c(O)cc3c(=O)oc4c(O)c(O)cc1c4c23 [1a, 2,3,7,8-Tetrahydroxy [1]benzopyrano [5,4,3-cde][1]benzopyran-5,10-dione, reference compound] | < 30% | curative activity in vivo
2.86 ± 0.13 µM | 5.5 ± 0.16 µM |  |  | 2280 ± 110 nM |  |  | O=C(OCCCOC(=O)c1cc(O)c(O)c(O)c1)c1cc(O)c(O)c(O)c1 [compound 2] |  | 
5.78 ± 0.13 µM | 5.52 ± 0.34 µM |  |  | 3190 ± 70 nM | 98% |  | O=C(OCCCOC(=O)c1cc(O)c(O)c(O)c1)c1cc(O)cc(O)c1 [compound 3, 3-((3,5-dihydroxybenzoyl)oxy)propyl 3,4,5-trihydroxybenzoate] |  | 
3.36 ± 0.25 µM | 5.77 ± 0.01 µM |  |  | 2840 nM |  |  | O=C(OCCOC(=O)c1cc(O)c(O)c(O)c1)c1cc(O)c(O)c(O)c1 [compound 4] |  | 
4.24 ± 0.36 µM | 5.48 ± 0.23 µM |  |  | 3730 ± 210 nM |  |  | O=C(OCCCOC(=O)c1cc(O)c(O)c(O)c1)c1ccc(O)c(O)c1 [compound 5, 3-((3,4-dihydroxybenzoyl)oxy)propyl 3,4,5-trihydroxybenzoate] |  | 
3.14 ± 0.72 µM | 4.68 ± 0.13 µM | reduced antioxidant effect |  | 5810 ± 490 nM | 94% | superior to ellagic acid | O=C(Nc1ccc(OC(=O)c2cc(O)c(O)c(O)c2)cc1)c1cc(O)c(O)c(O)c1 [compound 7, 4-(3,4,5-trihydroxybenzamido)phenyl 3,4,5-trihydroxybenzoate] |  | 
5.96 ± 0.06 µM | 6.97 ± 0.04 µM |  |  | 1480 ± 1170 nM |  |  | O=C(OCCCCOC(=O)c1cc(O)c(O)c(O)c1)c1cc(O)c(O)c(O)c1 [compound 8] |  | 
5.82 ± 0.35 µM | 6.34 ± 0.39 µM |  |  | 1810 ± 180 nM |  |  | O=C(NCCCOC(=O)c1cc(O)c(O)c(O)c1)c1cc(O)c(O)c(O)c1 [compound 9, 3-(3,4,5-trihydroxybenzamido) propyl 3,4,5-trihydroxybenzoate] |  | 
5.27 ± 0.29 µM | 6.22 ± 0.16 µM |  |  | 1020 ± 90 nM |  | superior to ellagic acid | O=C(Nc1cccc(OC(=O)c2cc(O)c(O)c(O)c2)c1)c1cc(O)c(O)c(O)c1 [compound 10, 3-(3,4,5-trihydroxybenzamido)phenyl 3,4,5-trihydroxybenzoate] |  | 
3.7 ± 0.45 µM | 5.86 ± 0.18 µM | very good inhibition |  | 3060 ± 70 nM |  |  | O=C(NCCCNC(=O)c1cc(O)c(O)c(O)c1)c1cc(O)c(O)c(O)c1 [compound 12] |  | 
4.91 ± 0.26 µM | 6 ± 0.31 µM |  |  | 5460 ± 10 nM |  |  | O=C(OCCCOC(=O)c1cc(O)c(O)c(O)c1)c1ccccc1 [compound 13, 3-(benzoyloxy)propyl 3,4,5-trihydroxybenzoate] |  | 
